In US10662194B2, “Substituted 6-anilino-9-heterocyclylpurine derivatives for inhibition of plant stress” (UNIVERZITA PALACKEHO V OLOMOUCI, priority 2014, dated 2020):

Key:
[1] = system: CKX1 overproducing (35S:CKX1) Arabidopsis seedlings; test: In vitro shoot and root growth of cytokinin deficient Arabidopsis plants; assay type: in vivo
From the text: Constitutive overexpression of CKX in 35S:CKX1 plants leads to enhanced root growth. If CKX inhibitor can restore WT phenotype, it is expected that inhibition of the CKX activity in 35S:AtCKX1 plants should thus have no effect or inhibit their root growth. Such observation was done in case of INCYDE, but not compound 12.

[2] = system: shoot rosettes of Arabidopsis; test: Leaf chlorophyll degradation in dark-incubated shoot rosettes; assay type: in vivo; settings: 6 days in the dark
Experimental: The effect of the compound 12 on retention of chlorophyll in the dark treated plants was tested using app. 18 DAG (days after germination) old Arabidopsis plants grown in vitro on standard MS medium (16 h/8 h light/dark regime, light intensity 120 μmol·m^−l·s^−1). Shoots of the plants were excised from the roots and the whole rossetes were placed into 6-well plate (one rosete per well) into water (3 mL per well) containing 0.01% DMSO (solvent control), or compound 12, cytokinin BAP and CKX inhibitor INCYDE (2-chloro-6-(3-methoxyanilino)purine), in concentrations of 0.01, 0.1, 1 and 10 μM. The plates were then incubated in the dark for 6 days at 25° C. After incubation chlorophyll from each rosette was extracted into 1.8 mL of 80% ethanol, during 30 min of heating to 80° C. The chlorophyll content in extracts was measured spectrofotometricaly at 665 nm. […] In this concentration the rosettes kept around 95% of chlorophyll.

maize (hybrid Amadeo) = test: Seed coating, shoot and root growth of maize (pot experiment); assay type: in vivo
Experimental: The drenching experiments with model plant Arabidopsis pointed to potential application of compound 12 in stimulation of plant growth and development when the roots of the plants are exposed to the chemical. […] In the year 2011 pot experiment was performed with maize (hybrid Amadeo; KWS, FAO 230). The seeds were coated with 10 and 50 μM concentration of compound 12 mixed into seed treatment agent Cruiser OSR (Syngenta; 8 L of solution per 1000 kg of seeds). Seeds coated with only Cruiser OSR were used for control variant. The seeds were dried and then sown into the soil, one plant per 15 L pot (30 plants were used per variant). The plants were harvested after app. one month in stage DC 18 (eight leafs per plant). The shoots and the roots of each plant were separated and dried. The weight of dry shoot and root biomass was recorded. […] The plants, which seeds were coated with the lower concentration of compound 12, formed 2-times higher root dry biomass and 2.75-times higher shoot dry biomass. In total this was reflected by 2.3-times increase of the total plant dry weight.

[3] = Calcein AM viability/cytotoxicity assay, MRC-5; assay type: cell-based; settings: human, MRC-5 lung fibroblasts; MRC-5, 72 h, FIG. 11; read-out: IC50, concentration reducing number of viable cells to 50%
From the text: Absence of toxic effects against mammalian (especially human) cell lines in a wide concentration range is one of the requirements on compounds intended for use in agriculture and medicine. Because toxic compounds negatively influence metabolic processes in cells, many standard cytotoxicity assays are based on measurement of metabolisation rate of various artificial substrates. Resulting product is then quantified e.g. by means of spectrometry. The assays can be easily modified for use in 96-well plates. For evaluation of cytotoxic effect of compounds of this invention, a microtiter assay based on quantification of metabolisation of Calcein AM was used. The assay is widely used in drug screening programs and in chemosensitivity testing. In live cells, Calcein AM is enzymatically hydrolysed and accumulation of resulting calcein is manifested by green fluorescence. The cytotoxicity of the studied compounds was determined with human fibroblast lines MRC-5 (lung fibroblasts) and BJ (foreskin fibroblasts). […] The fluorescence of the live cells was measured at 485 nm/538 nm (excitation/emission) with a Fluoroskan Ascent microplate reader (Labsystems). […]

human U2OS cells = test: Induction of DNA breakage, γ-H2AX immunofluorescence; assay type: cell-based; settings: 100 μM, 24 h, FIG. 13
From the text: Maintenance of genome integrity is essential for homeostasis and survival as impaired DNA damage response may predispose to grave pathologies such as neurodegenerative and immunodeficiency syndromes, cancer and premature aging (Mistrik et al., 2009). The potential effect of compound 12 on stimulation of DNA breakage was thus further estimated through analysis of phosphorylated histone H2AX (gamma-H2AX) quantified by optimized automated single-cell image analysis (Mistrik et al., 2009). The compound 12 was tested in concentration of 100 μM, the highest concentration accessible due to the compound solubility. Induction of DNA breakage was tested using human U2OS cells. The U2OS cells were cultivated at standard cultivation condition (37° C., 5% CO2). As a positive control, cells were irradiated by roentgen radiation (Baltobloc) (0.5 Gy-2 Gy), one hour later fixed and stained for γ-H2AX, a well established marker of the DNA damage. Parallel samples were treated by compound 12 for 24 hours, fixed and also stained for γ-H2AX. Microscopy analysis followed by computer based signal quantification was performed as described previously (Mistrik et al., 2009).

[4] = seed coating, lower concentration (10 μM), stage DC 18

Q: For `COc1cccc(Nc2nc(Cl)nc3c2ncn3C2CCCCO2)c1` (stereo not shown) [compound 12, 2-chloro-6-(3-methoxyanilino)-9-(tetrahydropyran-2-yl)purine], which “complementation of wild type shoot phenotype” value ([1]; 0.1 μM in MS medium, FIG. 3, 4) is on record?
A: led to restauration of wild type shoot phenotype

Q: And the “root biomass of 35S:CKX1 plants” value ([1]; tested concentration range, FIG. 5)?
A: strong dose-dependent positive effect

Q: What about the “chlorophyll kept in rosettes” value ([2]; 1 μM) of the same compound?
A: around 95%

Q: What about the “retention of chlorophyll, activity versus BAP and INCYDE” value ([2]; 0.01-10 μM, FIG. 7) of the same compound?
A: highest activity in 1 μM concentration

Q: And the “effect on shoot and root dry biomass” value (maize (hybrid Amadeo); seed coating 10 and 50 μM, FIG. 10)?
A: dose-dependent stimulatory effect

Q: And the “increase of the total plant dry weight” value (maize (hybrid Amadeo); [4])?
A: 2.3 times

Q: What about the “root dry biomass, times higher than control” value (maize (hybrid Amadeo); [4]) of the same compound?
A: 2 times

Q: And the “shoot dry biomass, times higher than control” value (maize (hybrid Amadeo); [4])?
A: 2.75 times

Q: And the IC50 at 72 h [3]?
A: > 100 µM

Q: And the “DNA damage (γ-H2AX)” value (human U2OS cells)?
A: no effect on DNA damage
